For this assay, the target named is T1, Met kinase domain (GST fusion protein) (Homo sapiens, UniProt P08581).
T1 construct: Purified GST fusion protein containing the Met kinase domain
Nature of the assay: Met transphosphorylation assay (ELISA, poly(glu-tyr) substrate).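 Note: Cell-free ELISA with plate-bound poly(Glu:Tyr 4:1) phosphorylated by GST-fused Met kinase domain plus ATP and Mn2+, phosphotyrosine detected by anti-phosphotyrosine antibody with HRP and ABTS read-out.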 The assay is classed as biochemical. Particulars: read-out: Met IC50.

Where [1] appears, read: plain numbers in column Met IC50 (μM) of Table 2.

Molecules are shown by their SMILES. Like-named read-outs stand apart in the source and are kept apart here.

T1 sequence (P08581 1078-1345 limits assumed): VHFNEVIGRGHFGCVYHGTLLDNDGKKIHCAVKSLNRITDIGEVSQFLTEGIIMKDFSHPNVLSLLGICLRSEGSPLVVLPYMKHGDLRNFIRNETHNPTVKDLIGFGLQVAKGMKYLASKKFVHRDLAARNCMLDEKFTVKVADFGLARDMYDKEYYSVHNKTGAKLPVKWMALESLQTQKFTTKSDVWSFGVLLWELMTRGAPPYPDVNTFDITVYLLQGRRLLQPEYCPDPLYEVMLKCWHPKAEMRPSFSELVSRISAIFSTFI
Protocol: General procedure is as follows: a compound is introduced to cells expressing the test kinase, either naturally or recombinantly, for a selected period of time after which, if the test kinase is a receptor, a ligand known to activate the receptor is added. The cells are lysed and the lysate is transferred to the wells of an ELISA plate previously coated with a specific antibody recognizing the substrate of the enzymatic phosphorylation reaction. Non-substrate components of the cell lysate are washed away and the amount of phosphorylation on the substrate is detected with an antibody specifically recognizing phosphotyrosine compared with control cells that were not contacted with a test compound.
Met Transphosphorylation Assay
This assay is used to measure phosphotyrosine levels on a poly(glutamic acid:tyrosine, 4:1) substrate as a means for identifying agonists/antagonists of met transphosphorylation of the substrate.
PBS, Gibco Catalog # 450-1300EB • 4. 50 mM HEPES • 5. […] Purified GST fusion protein containing the Met kinase domain, SUGEN, Inc. • 7. TBST Buffer. • 8. 10% aqueous (MilliQue H2O) DMSO. • 9. […] 2× Kinase Dilution Buffer: for 100 mL, mix 10 mL 1M HEPESat pH 7.5 with 0.4 mL 5% BSA/PBS, 0.2 mL 0.1 M sodium orthovanadate and 1 mL 5M sodium chloride in 88.4 mL dH2O. • 11. 4× ATP Reaction Mixture: for 10 mL, mix 0.4 mL 1 M manganese chloride and 0.02 mL 0.1 M ATP in 9.56 mL dH2O. • 12. 4× Negative Controls Mixture: for 10 mL, mix 0.4 mL 1 M manganese chloride in 9.6 mL dH2O. • 13. […] 500 mM EDTA. • 15. Antibody Dilution Buffer: for 100 mL, mix 10 mL 5% BSA/PBS, 0.5 mL 5% Carnation® Instant Milk in PBS and 0.1 mL 0.1 M sodium orthovanadate in 88.4 mL TBST. • 16. Rabbit polyclonal antophosphotyrosine antibody, SUGEN, Inc. • 17. Goat anti-rabbit horseradish peroxidase conjugated antibody, Biosource, Inc. • 18. ABTS Solution: for 1 L, mix 19.21 g citric acid, 35.49 g Na2HPO4 and 500 mg ABTS with sufficient dH2O to make 1 L. • 19. ABTS/H2O2: mix 15 mL ABST solution with 2μL H2O2 five minutes before use. • 20. 0.2 M HCl Procedure: • 1. Coat ELISA plates with 2 μg Poly(Glu-Tyr) in 100 μL PBS, hold-overnight at 4° C. • 2. Block plate with 150 μL of 5% BSA/PBS for 60 min. • 3. Wash plate twice with PBS then once with 50 mM Hepes buffer pH 7.4. • 4. Add 50 μl of the diluted kinase to all wells. (Purified kinase is diluted with Kinase Dilution Buffer. Final concentration should be 10 ng/well.) • 5. Add 25 μL of the test compound (in 4% DMSO) or DMSO alone (4% in dH2O) for controls to plate. • 6. Incubate the kinase/compound mixture for 15 minutes. • 7. Add 25 μL of 40 mM MnCl2 to the negative control wells. • 8. Add 25 μL ATP/MnCl2 mixture to the all other wells (except the negative controls). Incubate for 5 min. • 9. Add 25 μL 500 mM EDTA to stop reaction. • 10. Wash plate 3× with TBST. • 11. Add 100 μL rabbit polyclonal anti-Ptyr diluted 1:10,000 in Antibody Dilution Buffer to each well. Incubate, with shaking, at room temperature for one hour. • 12. Wash plate 3× with TBST. • 13. […] Add 100 μL per well and incubate at room temperature, with shaking, for one hour. • 14. Wash plate 1× with PBS. • 15. Add 100 μl of ABTS/H2O2 solution to each well. • 16. If necessary, stop the development reaction with the addition of 100 μl of 0.2M HCl per well. • 17.

`CC(Oc1nc(-c2ccc(NC(=O)N3CC[C@H](N)C3)cc2)cnc1N)c1c(Cl)ccc(F)c1Cl` (stereo partly drawn) [II-191, (S)-3-Amino-pyrrolidine-1-carboxylic acid (4-{5-amino-6-[1-(2,6-dichloro-3-fluoro-phenyl)-ethoxy]-pyrazin-2-yl}-phenyl)-amide]: the half-maximal inhibitory concentration (IC50) (commonly the midpoint of a concentration-inhibition curve) was 3 µM.

In the case of `CC(Oc1cc(C#CCNC(=O)N2CCC[C@H]2CN2CCCC2)cnc1N)c1c(Cl)ccc(F)c1Cl` (stereo partly drawn) [Example I-412, (S)-2-Pyrrolidin-1-ylmethyl-pyrrolidine-1-carboxylic acid (3-{6-amino-5-[1-(2,6-dichloro-3-fluoro-phenyl)-ethoxy]-pyridin-3-yl}-prop-2-ynyl)-amide], the IC50 under setting [1] amounted to 0.067 µM.

As for `Nc1ncc(-c2ccc(C(=O)N3CCC(N4CCCC4)CC3)cc2)nc1OCc1cccc(F)c1C(F)(F)F` [II-127, {4-[5-Amino-6-(3-fluoro-2-trifluoromethyl-benzyloxy)-pyrazin-2-yl]-phenyl}-(4-pyrrolidin-1-yl-piperidin-1-yl)-methanone], the IC50 amounted to 0.047 µM.

As to `CC(Oc1cc(-c2ccc(NS(=O)(=O)CCN3CC[C@@H](O)C3)cc2)cnc1N)c1c(F)ccc(F)c1Cl` (some centres unmarked) [Example I-327], the IC50 (Table 2) was determined as 0.093 µM.

Consider `CN1CCN(C(=O)c2ccc(-c3cnc(N)c(OCc4ccc(F)cc4Cl)c3)cc2)CC1` [Example I-207, {4-(6-Amino-5-(2-chloro-4-fluoro-benzyloxy)-pyridin-3-yl]-phenyl}-(4-methyl-piperazin-1-yl)-methanone], for which the IC50 (Table 2) was 5 µM.

In the case of `CC(Oc1cc(C#CCNC(=O)CN2CC[C@@H](O)C2)cnc1N)c1c(Cl)ccc(F)c1Cl` (stereo partly drawn) [Example I-427, N-(3-{6-Amino-5-[1-(2,6-dichloro-3-fluoro-phenyl)-ethoxy]-pyridin-3-yl}-prop-2-ynyl)-2-((R)-3-hydroxy-pyrrolidin-1-yl)-acetamide], under setting [1], the IC50 worked out at 0.011 µM.

With `Nc1ncc(-c2ccccc2)cc1OCc1cc(C(F)(F)F)ccc1Cl` [Example I-92, 3-(2-Chloro-5-trifluoromethyl-benzyloxy)-5-phenyl-pyridin-2-ylamine], the IC50 was above 20 µM.

With `CC(Oc1cc(-c2ccc(C(=O)NCCN3CCCC3)cc2)cnc1N)c1c(F)ccc(F)c1Cl` (centres unmarked) [Example I-340, 4-{6-Amino-5-[1-(2-chloro-3,6-difluoro-phenyl)-ethoxy]-pyridin-3-yl}-N-(2-pyrrolidin-1-yl-ethyl)-benzamide], under “Table 2”, the half-inhibitory concentration (IC50) came out at 0.086 µM.

`CC(Oc1nc(-c2ccc(C(=O)N3CCC[C@@H]3CN3CCCC3)cc2)cnc1N)c1c(Cl)cccc1Cl` (stereo partly drawn) [II-161, (4-{5-Amino-6-[1-(2,6-dichloro-phenyl)-ethoxy]-pyrazin-2-yl}-phenyl)-((R)-2-pyrrolidin-1-ylmethyl-pyrrolidin-1-yl)-methanone]: the concentration for half-maximal inhibition (IC50) was found to be 0.16 µM.

Consider `Nc1ncc(-c2ccc(C(=O)NCCCN3CCCC3)cc2)cc1OCc1c(F)ccc(F)c1Cl` [Example I-222], for which, under “Table 2”, the IC50 came to 0.19 µM.

Take `Nc1ncc(-c2cccc(C(=O)NCCN3CCOCC3)c2)cc1OCc1c(F)ccc(F)c1Cl` [Example I-237, 3-[6-Amino-5-(2-chloro-3,6-difluoro-benzyloxy)-pyridin-3-yl]-N-(2-morpholin-4-yl-ethyl)-benzamide]: the IC50 (Table 2) came to 0.35 µM.

As to `Nc1ncc(-c2ccc(C(=O)NCCN3CCOCC3)s2)nc1OCc1c(F)ccc(F)c1Cl` [II-198, 5-[5-Amino-6-(2-chloro-3,6-difluoro-benzyloxy)-pyrazin-2-yl]-thiophene-2-carboxylic acid (2-morpholin-4-yl-ethyl)-amide], the IC50 was found to be 0.7 µM.

Consider `CCN(CC)CCS(=O)(=O)Nc1ccc(-c2cnc(N)c(OC(C)c3c(Cl)ccc(F)c3Cl)n2)cc1` (centres unmarked) [II-140, 2-Diethylamino-ethanesulfonic acid (4-{5-amino-6-[1-(2,6-dichloro-3-fluoro-phenyl)-ethoxy]-pyrazin-2-yl}-phenyl)-amide], for which the IC50 stood at 0.35 µM.

As for `CC(Oc1cc(-c2cccc(C(=O)NCCN3CCOCC3)c2)cnc1N)c1c(Cl)cccc1Cl` (centres unmarked) [Example I-390, 3-{6-Amino-5-[1-(2,6-dichloro-phenyl)-ethoxy]-pyridin-3-yl}-N-(2-morpholin-4-yl-ethyl)-benzamide], the IC50 under setting [1] stood at 0.12 µM.

Regarding `CC(Oc1cc(-c2ccc(OCCC3CCCN3C)cc2)cnc1N)c1c(Cl)ccc(F)c1Cl` (centres unmarked) [Example I-356], the IC50 (Table 2) was found to be 0.079 µM.

With `Cc1csc(-c2cnc(N)c(OCc3c(Cl)cccc3Cl)c2)c1` [Example I-30, 3-(2,6-Dichloro-benzyloxy)-5-(4-methyl-thiophen-2-yl)-pyridin-2-ylamine], the IC50 is 3.5 µM.

In the case of `Nc1ncc(-c2ccc(NS(=O)(=O)CCN3CCOCC3)cc2)cc1OCc1c(F)ccc(F)c1Cl` [Example I-247, 2-Morpholin-4-yl-ethanesulfonic acid {4-[6-amino-5-(2-chloro-3,6-difluoro-benzyloxy)-pyridin-3-yl]-phenyl}-amide], under “Table 2”, the IC50 turned out to be 0.31 µM.

With `CN(C)[C@H]1CCN(C(=O)c2ccc(-c3cnc(N)c(OCc4ccccc4C(F)(F)F)c3)cc2)C1` [Example I-185, {4-[6-Amino-5-(2-trifluoromethyl-benzyloxy)-pyridin-3-yl]-phenyl}-[(3S)-3-dimethylamino-pyrrolidin-1-yl]-methanone], the IC50 (Table 2) came to 1.39 µM.

On to `CC(Oc1cc(-c2ccc(C(=O)NCCN3CCOCC3)cc2)cnc1N)c1c(Cl)ccc(F)c1Cl` (centres unmarked) [Example I-302, 4-{6-Amino-5-[1-(2,6-dichloro-3-fluoro-phenyl)-ethoxy]-pyridin-3-yl}-N-(2-morpholin-4-yl-ethyl)-benzamide], for which the IC50 (Table 2) came out at 0.071 µM.

Take `Nc1ccc(-c2cnc(N)c(OCc3ccccc3)c2)cn1` [Example I-491, 5-Benzyloxy-[3,3′]bipyridinyl-6,6′-diamine]: the IC50 under setting [1] was above 20 µM.

Turning to `Nc1ncc(-c2ccc(NS(=O)(=O)CCNCC3CC3)cc2)nc1OCc1c(F)ccc(F)c1Cl` [II-15, 2-(Cyclopropylmethyl-amino)-ethanesulfonic acid {4-[5-amino-6-(2-chloro-3,6-difluoro-benzyloxy)-pyrazin-2-yl]-phenyl}-amide], the IC50 was determined as 1.28 µM.

For `CN(C)[C@H]1CCN(C(=O)c2ccc(-c3cnc(N)c(OCc4ccccc4Cl)c3)cc2)C1` [Example I-153, {4-[6-Amino-5-(2-chloro-benzyloxy)-pyridin-3-yl]-phenyl}-[(3S)-3-dimethylamino-pyrrolidin-1-yl]-methanone], the IC50 was determined as 12.7 µM.

In the case of `Nc1ncc(-c2ccccc2)cc1OCc1c(F)ccc(F)c1Cl` [Example I-95, 3-(2 Chloro-3,6-difluoro-benzyloxy)-5-phenyl-pyridin-2-ylamine], the IC50 worked out at 0.64 µM.

Regarding `CC(Oc1cc(-c2ccc(NS(=O)(=O)CCNC3CC3)cc2)cnc1N)c1c(F)ccc(F)c1Cl` (centres unmarked) [Example I-289, 2-Cyclopropylamino-ethanesulfonic acid (4-{6-amino-5-[1-(2-chloro-3,6-difluoro-phenyl)-ethoxy]-pyridin-3-yl}-phenyl)-amide], for the setting “Table 2”, the IC50 turned out to be 0.16 µM.

On to `Nc1ncc(-c2ccc(C(=O)NCCN3CCCC3)cc2)cc1OCc1c(F)ccc(F)c1Cl` [Example I-221], for which, under “Table 2”, the IC50 turned out to be 0.18 µM.

On to `CC(Oc1nc(-c2cccc(C(=O)NC3CCN(C)CC3)c2)cnc1N)c1c(Cl)cccc1Cl` (centres unmarked) [II-169, 3-{5-Amino-6-[1-(2,6-dichloro-phenyl)-ethoxy)-pyrazin-2-yl}-N-(1-methyl-piperidin-4-yl)-benzamide], for which the IC50 turned out to be 0.18 µM.

On to `CC(Oc1nc(-c2ccc(NC(=O)N3CC[C@H](N)C3)cc2)cnc1N)c1c(F)ccc(F)c1Cl` (stereo partly drawn) [II-187, (S)-3-Amino-pyrrolidine-1-carboxylic acid (4-{5-amino-6-[1-(2-chloro-3,6-difluoro-phenyl)-ethoxy]-pyrazin-2-yl}-phenyl)-amide], for which the IC50 worked out at 0.082 µM.

As for `CC(Oc1nc(-c2ccc(C(=O)N3CCN(C)CC3)cc2)cnc1N)c1c(Cl)cccc1Cl` (centres unmarked) [II-163, (4-{5-Amino-6-[1-(2,6-dichloro-phenyl)-ethoxy]-pyrazin-2-yl}-phenyl)-(4-methyl-piperazin-1-yl)-methanone], the IC50 was found to be 0.15 µM.

Turning to `CC(Oc1nc(-c2ccc(NS(=O)(=O)CCN3CCC(O)CC3)cc2)cnc1N)c1c(Cl)ccc(F)c1Cl` (centres unmarked) [II-141, 2-(4-Hydroxy-piperidin-1-yl)-ethanesulfonic acid (4-{5-amino-6-[1-(2,6-dichloro-3-fluoro-phenyl)-ethoxy]-pyrazin-2-yl}-phenyl)-amide], the IC50 was 0.21 µM.

`CC(Oc1cc(-c2ccc(OCC3CCCN(C)C3)cc2)cnc1N)c1c(Cl)ccc(F)c1Cl` (centres unmarked) [Example I-361, 3-[1-(2,6-Dichloro-3-fluoro-phenyl)-ethoxy]-5-[4-(1-methyl-piperidin-3-ylmethoxy)-phenyl]-pyridin-2-ylamine]: the 50% inhibitory concentration (IC50) (Table 2) amounted to 0.043 µM.

On to `Nc1ncc(-c2cccc(NS(=O)(=O)CCN3CCCC3)c2)cc1OCc1c(F)ccc(F)c1Cl` [Example I-256, 2-Pyrrolidin-1-yl-ethanesulfonic acid {3-[6-amino-5-(2-chloro-3,6-difluoro-benzyloxy)-pyridin-3-yl]-phenyl}-amide], for which the IC50 (Table 2) worked out at 0.23 µM.

For the compound `CN1CCN(C(=O)c2ccc(-c3cnc(N)c(OCc4ccccc4C(F)(F)F)c3)cc2)CC1` [Example I-188, {4-[6-Amino-5-(2-trifluoromethyl-benzyloxy)-pyridin-3-yl]-phenyl}-(4-methyl-piperazin-1-yl)-methanone], the concentration for half-maximal inhibition (IC50) (Table 2) was 1.64 µM.

For the compound `Nc1ncc(-c2ccccn2)cc1OCc1ccc(Cl)cc1` [Example I-496, 5′-(4-Chloro-benzyloxy)-[2,3′]bipyridinyl-6′-ylamine], the IC50 under setting [1] came out at 14 µM.

For `CC(C)(C)OC(=O)n1cccc1-c1cnc(N)c(OCc2c(Cl)cccc2Cl)c1` [Example I-6, 2-[6-Amino-5-(2,6-dichloro-benzyloxy)-pyridin-3-yl]-pyrrole-1-carboxylic acid tert-butyl ester], the IC50 was above 20 µM.

With `CC(Oc1nc(-c2cccc(C(=O)NCCN3CCOCC3)c2)cnc1N)c1c(Cl)ccc(F)c1Cl` (centres unmarked) [II-134, 3-{5-Amino-6-[1-(2,6-dichloro-3-fluoro-phenyl)-ethoxy]-pyrazin-2-yl}-N-(2-morpholin-4-yl-ethyl)-benzamide], the 50% inhibitory concentration (IC50) is 0.21 µM.

(Values after patent US20050009840A1 (SUGEN, INC., priority 2003, published 2005).)
